Experimental findings from US20130202653A1, “3-ARYL-3-HYDROXY-2-AMINO-PROPIONIC ACID AMIDES, 3-HETEROARYL-3-HYDROXY-2-AMINOPROPIONIC ACID AMIDES AND RELATED COMPOUNDS HAVING ANALGESIC AND/OR IMMUNO STIMULANT ACTIVITY” (Allergan, Inc., priority 2005, published 2013) are described below.

Series [1] concerns spleen size. In words: Immunostimulation: splenic size after systemic administration. The conditions noted are these: animals dosed at 200 mg/kg; rats. In kind it is in vivo. From the text: An art accepted method for measuring immuno stimulation comprises systemic administration of compounds to assay for the ability to stimulate the immune system, possibly due to nonspecific upregulation of the hemolymphoreticular system. This upregulation could result in increased numbers of lymphocytes of both T- and B-cell lineage.

The test system of series [2] is tactile allodynia in the rat Chung model. Description: Chung model: reversal of tactile allodynia (von Frey hairs) after spinal nerve ligation. The conditions noted are these: Rattus norvegicus, 1 h, peak at 60 min post dose, read-out: Peak % Pain reversal: time post dose; for inhibition in vivo at 0.03 mg/kg: 30 μg/kg IP. The series is classed as in vivo. From the text: An art-accepted model or assay for measuring an analgesic effect of a compound in chronic pain (in particular peripheral neuropathy) is the model known as Kim and Chung 1992, Pain […], pp 355-363 (Chung model). This model involves the surgical ligation of the L5 (and optionally the L6) spinal nerves on one side in experimental animals. Rats recovering from the surgery gain weight and display a level of general activity similar to that of normal rats. However, these rats develop abnormalities of the foot, wherein the hindpaw is moderately everted and the toes are held together. More importantly, the hindpaw on the side affected by the surgery appears to become sensitive to low-threshold mechanical stimuli and will perceive pain instead of the faint sensation of touch. This sensitivity to normally non-painful touch, called “tactile allodynia”, develops within the first week after surgery and lasts for at least two months. The allodynia response includes lifting the affected hindpaw to escape from the stimulus, licking the paw and holding it in the air for many seconds. None of these responses is normally seen in the control group.
To produce the tactile allodynia, rats are anesthetized before surgery. The surgical site is shaved and prepared either with betadine or Novacaine. Incision is made from the thoracic vertebra X111 down toward the sacrum. Muscle tissue is separated from the spinal vertebra (left side) at the L4-S2 levels. The L6 vertebra is located and the transverse process is carefully removed with a small rongeur to expose the L4-L6 spinal nerves. The L5 and L6 spinal nerves are isolated and tightly ligated with 6-0 silk thread. The same procedure is done on the right side as a control, except no ligation of the spinal nerves is performed.
After a complete hemostasis is confirmed, the wounds are sutured. A small amount of antibiotic ointment is applied to the incised area, and the rat is transferred to the recovery plastic cage under a regulated heat-temperature lamp.
On the day of the experiment, at least seven days after the surgery, typically six rats per test group are administered the test drugs by intraperitoneal (i.p.) injection or oral gavage (p.o.). For i.p. administration, the compounds are formulated in H2O and given in a volume of 1 ml/kg body weight by injecting into the intraperitoneal cavity. For p.o. administration, the compounds are formulated in H2O and given in a volume of 1 ml/kg body weight using an 18-gauge, 3 inch gavage needle that is slowly inserted through the esophagus into the stomach.
Tactile allodynia is assessed via von Frey hairs, which are a series of fine hairs with incremental differences in stiffness. Rats are placed in a plastic cage with a wire mesh bottom and allowed to acclimate for approximately 30 minutes. To establish the pre-drug baseline, the von Frey hairs are applied perpendicularly through the mesh to the mid-plantar region of the rats' hindpaw with sufficient force to cause slight buckling and held for 6-8 seconds. The applied force has been calculated to range from 0.41 to 15.1 grams. If the paw is sharply withdrawn, it is considered a positive response. A normal animal will not respond to stimuli in this range, but a surgically ligated paw will be withdrawn in response to a 1-2 gram hair. The 50% paw withdrawal threshold is determined using the method of Dixon, W. J., Ann. Rev. Pharmacol. Toxicol. 20:441-462 (1980) hereby incorporated by reference. Tactile allodynia is measured prior to and 15, 30, and 60 minutes after drug administration. The post-drug threshold is compared to the pre-drug threshold and the percent reversal of tactile sensitivity is calculated based on a normal threshold of 15.1 grams.
Table 1 below indicates the degree of pain reversal obtained in the Chung model with exemplary compounds of the invention. […]

Structures can show the parent of a compound that is named as a salt.

On to `N[C@@H](C(=O)N1CCCC1)[C@@H](O)c1ccncc1` (racemic) [Compound 22, DL-threo-2-Amino-3-hydroxy-3-(pyridin-4-yl)-1-(pyrrolidin-1-yl)propan-1-one dihydrochloride], for which the “increase in spleen size” value in series [1] is recorded as “twentyfive”. In series [2] (ip, 100 μg/kg IP), the inhibition in vivo at 0.1 mg/kg worked out at 100%. For the same molecule, the inhibition in vivo at 3 mg/kg in series [2] (po, 3000 μg/kg PO) was 100%.

The melting point is the temperature of the solid-liquid transition. In turn, `N[C@@H](C(=O)N1CCCC1)[C@@H](O)c1cccnc1` (racemic) (as salt: hydrochloride) [Compound 20, DL-threo-2-Amino-3-hydroxy-3-(pyridin-3-yl)-1-(pyrrolidin-1-yl)propan-1-one dihydrochloride] displayed a melting point of 159.6 °C.

As to `N[C@@H](C(=O)N1CCCC1)[C@@H](O)c1ccc2ccccc2n1` (racemic) [Compound 30, DL-threo-2-Amino-3-hydroxy-1-(pyrrolidin-1-yl)-3-(quinolin-2-yl)propan-1-one dihydrochloride], the inhibition in vivo at 0.3 mg/kg in series [2] (ip, 300 μg/kg IP) amounted to 53%.

With `N[C@@H](C(=O)N1CCCC1)[C@H](O)c1ccncc1` (racemic) [Compound 219, (±)-erythro-2-amino-3-hydroxy-3-(pyridin-4-yl)-1-(pyrrolidin-1-yl)propan-1-one dihydrochloride], the inhibition in vivo at 0.03 mg/kg in series [2] (ip) was determined as 82%. On the same count and under the same terms, as for `NC(C(=O)N1CC[C@H](F)C1)C(O)c1ccncc1` (stereo partly drawn) [Compound 214, (2S,3R)- & (2R,3S)-2-Amino-1-((S)-3-fluoropyrrolidin-1-yl)-3-hydroxy-3-(pyridin-4-yl)propan-1-one dihydrochlorides], the figure is 86%.
